Measurements reported in patent publication US5028629A, “5-Lipoxygenase inhibitors” (Eli Lilly and Company, priority 1990, dated 1991).
Where two headings read alike, the source gives them in different places.

Tests used:
[1] = tested on: polymorphonuclear leukocytes (PMNs); experiment: H-PMN Assay: LTB4 content of supernatant of A23187-stimulated human PMNs by radioimmunoassay; type: cell-based; settings: Leukocyte
Protocol: Sodium citrated venous blood is drawn from normal human subjects. After centrifugation at 300 ×g for 15 minutes, the platelet-rich layer of plasma is discarded and an equal volume of Hanks' balanced salt solution (HBSS) is added to the enriched cell fraction. This platelet-depleted cell suspension is then layered on an equal volume of Ficoll-Paque. After centrifugation for 40 minutes at 300 ×g, the bottom layer containing erythrocytes and polymorphonuclear leukocytes (PMNs) is diluted with two volumes of a 0.2% methocel solution. The erythrocytes are sedimented upon standing for 15 minutes, and the supernatant containing the PMNs is aspirated and centrifuged at 300 ×g, for 5 minutes. The cell pellet is then exposed to 0.2% NaCl for 30 seconds to lyse any remaining erythrocytes, and the ionic strength of the suspension is readjusted to 0.9% with NaCl. The PMNs are recovered by centrifugation at 300 ×g for 5 minutes and are suspended in HBSS to a concentration of 2 ×10^6 cells/ml.
The test compounds are dissolved in and diluted with dimethylsulfoxide (DMSO) which also contains 2×10^-6 M of the calcium ionophore, A23187. To 1 ml of the PMN suspension, 10 μl of the DMSO solution is added, and the mixture is incubated at 37° C. for 10 minutes. The PMNs are rapidly pelleted in a microcentrifuge, and the supernatant is kept at -20° C. for future determination of LTB4 content via the radioimmunoassay.

5-lipoxygenase = biological target: T1, 5-lipoxygenase (Cavia porcellus, UniProt A0A286X958); experiment: 5-Lipoxygenase (5-LO) Assay: 5-HETE formation in supernatant of guinea pig PMNL sonicate; type: biochemical
T1 construct: 0.2 ml of the supernatant obtained from the PMNL sonicate; endogenous in cells; host or cells: casein-elicited guinea pig peritoneal polymorphonuclear leukocytes (PMNL), sonicate, 30,000 x g supernatant
T1 sequence (A0A286X958 1-674): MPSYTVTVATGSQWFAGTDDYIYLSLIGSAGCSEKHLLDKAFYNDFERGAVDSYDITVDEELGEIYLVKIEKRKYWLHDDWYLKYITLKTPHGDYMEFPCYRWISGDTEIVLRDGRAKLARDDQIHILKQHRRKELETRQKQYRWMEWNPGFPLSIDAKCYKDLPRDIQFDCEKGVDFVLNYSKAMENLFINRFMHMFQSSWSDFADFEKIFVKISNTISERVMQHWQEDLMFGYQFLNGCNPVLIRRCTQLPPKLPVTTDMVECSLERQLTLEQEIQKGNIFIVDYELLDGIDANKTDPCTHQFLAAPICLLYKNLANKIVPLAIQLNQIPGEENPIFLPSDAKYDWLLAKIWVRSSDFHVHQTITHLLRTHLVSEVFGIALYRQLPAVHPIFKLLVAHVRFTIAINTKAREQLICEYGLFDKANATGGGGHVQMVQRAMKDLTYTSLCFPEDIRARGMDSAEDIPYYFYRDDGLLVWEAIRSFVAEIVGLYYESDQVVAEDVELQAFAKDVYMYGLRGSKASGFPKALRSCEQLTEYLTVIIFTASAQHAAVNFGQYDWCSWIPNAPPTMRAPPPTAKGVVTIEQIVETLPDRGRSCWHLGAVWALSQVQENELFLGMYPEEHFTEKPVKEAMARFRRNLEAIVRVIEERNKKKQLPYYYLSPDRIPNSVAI
Protocol: Ten milliliters of a 2% casein solution is injected intraperitoneally to guinea pigs weighing 250-300 gm. After 16-18 hours, the guinea pigs are killed by suffocation in a carbon dioxide chamber. The peritoneal cavity is infused with 70 ml of saline and 40-50 ml of the fluid is recovered from the cavity. After centrifugation, cell pellets are washed twice in Hank's balanced salt solution (HBSS) without calcium ion.
The cells are then suspended in 5 ml of sodium phosphate buffer, pH 7.1 containing 1 mM, ethylene diamine tetraacetic acid (EDTA), and 0.1% gelatin. About 20-30×10^7 cells are obtained from one guinea pig.
The PMNL suspension is disrupted by five 1/2-second pulse sonication at the setting of 3 in a Branson Sonifier, Model 350, equipped with a microtip. The sonicates are combined and centrifuged at 30,000 ×g for 10 minutes. The supernatant is kept frozen at -70° C. until use.
Enzyme activity is determined by assaying for 5-hydroxy-6,8,11,14-eicosatetraenoic acid (5-HETE) formation by first incubating 0.2 ml of the supernatant obtained from the PMNL sonicate with the test compound, 1 mM CaCl2, 2 mM ATP, and 1 mM GSH for 5 minutes at 37° C. The mixture is treated with […] ^14 C-arachidonic acid and incubated at 37° C. an additional 10 minutes. The enzyme reaction is then stopped by the addition of 10 μl of 1M citric acid and 10 μl of an alcohol solution containing 20 mg/ml each of indomethacin and butylated hydroxyanisole (BHA). The reaction mixture is spotted (50 μl) on a silica gel plate (Baker TLC plate S1250-PA-19C) and subjected to TLC in a solvent system of ethyl acetate/2,2,4-trimethylpentane/glacialacetic acid/H2 O (90:50:20:100).
The radioactivity of the arachidonic acid and its metabolites (5-HETE and LTB4) is visualized from a developed x-ray film which had been exposed to the TLC plate 1-2 days. The amount of 5-HETE formed is quantitated by scraping the silica gel area corresponding to the spot on the x-ray film, and the radioactivity determined in a Isocap/300 liquid scintillation counter (Searle Analytic, Inc.).
The percent inhibition of the formation of 5-HETE is determined for each concentration of compound tested as compared to a control experiment wherein no test compound is added. The concentration and percent values are plotted on semi log paper and the concentration in which formation of 5-HETE is inhibited by 50% (IC50) is determined by interpolation.

[2] = Homo sapiens, second table (Table III), known hydroxamic acid derivatives as comparison
[3] = second table (Table III), known hydroxamic acid derivatives as comparison, read-out: 5-Lo (IC50)
[4] = Table II, guinea pig PMNL sonicate supernatant, 14C-arachidonic acid, 37° C., read-out: 5-LO (concentration in which formation of 5-HETE is inhibited by 50%, IC50)
[5] = 10 min, Table II, human PMNs, calcium ionophore A23187, 37° C. for 10 minutes, LTB4 by radioimmunoassay

Structure (SMILES) | IC50 (5-lipoxygenase; [4]) | further results
CN(O)C(=O)C=Cc1ccccc1OCc1ccccc1 [reference compound] |  | IC50 [1, 2]: 42 nM; IC50 (5-lipoxygenase; [3]): 54 nM
CCCCS(=O)(=O)c1ccccc1C=CC(=O)N(C)O [Example 34, 2-n-butylsulfonyl-N-hydroxy-N-methylcinnamamide] | 1100 nM | 
CCc1ccc(CCCc2ccccc2)cc1C(=O)N(C)O [reference compound] |  | IC50 (5-lipoxygenase; [3]): 550 nM
CSc1ccc(Cc2ccccc2C=CC(=O)N(C)O)cc1 [Example 14, 2-(4-methylthiobenzyl)-N-hydroxy-N-methylcinnamamide] | 31 nM | 
CN(O)C(=O)C=Cc1ccccc1Cc1ccccc1 [Example 37, 2-benzyl-N-hydroxy-N-methylcinnamamide] | 53 nM | IC50 [1, 5]: 28 nM
CCCCOc1ccccc1C=CC(=O)N(C)O [reference compound] |  | IC50 [1, 2]: 52 nM; IC50 (5-lipoxygenase; [3]): 41 nM
CN(O)C(=O)C=Cc1ccccc1Cc1ccc(S(C)(=O)=O)cc1 [Example 15, 2-(4-methylsulfonylbenzyl)-N-hydroxy-N-methylcinnamamide] | 490 nM | 
COc1ccccc1C=CC(=O)N(C)O [reference compound] |  | IC50 [1, 2]: 143 nM; IC50 (5-lipoxygenase; [3]): 1200 nM
CSc1ccc(CCCc2ccccc2)cc1C(=O)N(C)O [reference compound] |  | IC50 (5-lipoxygenase; [3]): 592 nM
CCCCCCc1cccc(C=CC(=O)N(C)O)c1[S+](C)[O-] (stereo not drawn) [Example 20, 2-methylsulfinyl-3-n-hexyl-N-hydroxy-N-methylcinnamamide] | 459 nM | IC50 [1, 5]: 190 nM
CSc1ccccc1C=CC(=O)N(C)O [Example 23, 2-methylthio-N-hydroxy-N-methyl-cinnamamide] | 392 nM | IC50 [1, 5]: 100 nM
CCCCCCc1cccc(C=CC(=O)N(C)O)c1S(C)(=O)=O [Example 21, 2-methylsulfonyl-3-n-hexyl-N-hydroxy-N-methylcinnamamide] | 166 nM | IC50 [1, 5]: 461 nM
CCCCCCCCSc1ccccc1C=CC(=O)N(C)O [Example 38, 2-n-octylthio-N-hydroxy-N-methylcinnamamide] | 28 nM | IC50 [1, 5]: 11 nM
CSc1ccccc1C(=O)N(C)O [reference compound] |  | IC50 (5-lipoxygenase; [3]): 44000 nM
CCCCSc1ccc(CCCc2ccccc2)cc1C=CC(=O)N(C)O [Example 29, 2-n-butylthio-5-(3-phenylpropyl)-N-hydroxy-N-methylcinnamamide] | 94 nM | IC50 [1, 5]: 58 nM
CCCCSc1ccccc1C=CC(=O)N(O)C(C)C [Example 28, 2-n-butylthio-N-hydroxy-N-isopropylcinnamamide] | 8 nM | 
CC(C)CSc1ccccc1C=CC(=O)N(C)O [Example 40, 2-[1-(2-methylpropyl)thio]-N-hydroxy-N-methylcinnamamide] | 52 nM | IC50 [1, 5]: 17 nM
CSc1cc(CCCc2ccccc2)ccc1C=CC(=O)N(C)O [Example 6, 2-methylthio-4-(3-phenylpropyl)-N-hydroxy-N-methylcinnamamide] | 7 nM | 

Structure (SMILES) | IC50 (5-lipoxygenase; [4]) | further results
CN(O)C(=O)C=Cc1cc(CCCc2ccccc2)ccc1[S+](C)[O-] (stereo not drawn) [Example 41, 2-methylsulfinyl-5-(3-phenylpropyl)-N-hydroxy-N-methylcinnamamide] | 160 nM | 
CN(O)C(=O)C=Cc1ccccc1SCCCCCC(F)(F)F [Example 44, 2-[1-(5-trifluoromethylpentyl)thio]-N-hydroxy-N-methylcinnamamide] | 31 nM | IC50 [1, 5]: 17 nM
CSc1ccc(CCCc2ccccc2)cc1C=CC(=O)N(C)O [Example 27, 2-(methylthio)-5-(3-phenylpropyl)-N-hydroxy-N-methylcinnamamide] | 26 nM | IC50 [1, 5]: 18 nM
C=CCCSc1ccccc1C=CC(=O)N(C)O [Example 2] | 44 nM | IC50 [1, 5]: 12 nM
CSc1ccc(C=CC(=O)N(C)O)c(Cc2ccccc2)c1 [Example 13, 2-benzyl-4-methylthio-N-hydroxy-N-methylcinnamamide] | 23 nM | 
CN(O)C(=O)C=Cc1ccccc1SCCc1ccccc1 [Example 25, 2-[1-(2-phenylethyl)thio]-N-hydroxy-N-methyl-cinnamamide] | 14 nM | 
CN(O)C(=O)C=Cc1ccccc1SCCCCCCc1ccccc1 [Example 39, 2-[10(6-phenylhexyl)thio]-N-hydroxy-N-methylcinnamamide] | 33 nM | 
CN(O)C(=O)C=Cc1ccc(CCCc2ccccc2)cc1S(C)(=O)=O [Example 16, 2-methylsulfonyl-4-(3-phenylpropyl)-N-hydroxy-N-methylcinnamamide] | 74 nM | 
CN(O)C(=O)C=Cc1ccccc1SC(C)(C)C [Example 18, 2-tert-butylthio-N-hydroxy-N-methyl-cinnamamide] | 175 nM | 
CN(O)C(=O)C=Cc1ccc(S(C)(=O)=O)cc1Cc1ccccc1 [Example 12, 2-benzyl-4-methylsulfonyl-N-hydroxy-N-methylcinnamamide] | 695 nM | 
CCCCSc1cc(C(F)(F)F)ccc1C=CC(=O)N(C)O [Example 7, 2-n-butylthio-4-trifluoromethyl-N-hydroxy-N-methylcinnamamide] | 24 nM | 
CCCCc1cc(SC)ccc1C=CC(=O)N(C)O [Example 8, 2-n-butyl-4-methylthio-N-hydroxy-N-methylcinnamamide] | 23 nM | 
CCCC[S+]([O-])c1ccccc1C=CC(=O)N(C)O (stereo not drawn) [Example 36, 2-n-butylsulfinyl-N-hydroxy-N-methylcinnamamide] | 2440 nM | 
CN(O)C(=O)C=Cc1ccccc1SCC1CCCCC1 [Example 26, 2-cyclohexylmethylthio-N-hydroxy-N-methylcinnamamide] | 14 nM | 
CN(O)C(=O)C=Cc1ccc(CCCc2ccccc2)cc1[S+](C)[O-] (stereo not drawn) [Example 32, 2-methylsulfinyl-4-(3-phenylpropyl)-N-hydroxy-N-methylcinnamamide] | 8400 nM | 
CN(O)C(=O)C=Cc1cc(CCCc2ccccc2)ccc1S(C)(=O)=O [Example 42, 2-methylsulfonyl-5-(3-phenylpropyl)-N-hydroxy-N-methylcinnamamide] | 304 nM | 
CN(O)C(=O)C=Cc1ccccc1-c1ccccc1 [Example 24, 2-phenyl-N-hydroxy-N-methylcinnamamide] | 131 nM | 
